# Experimental data taken from patent US20240245649A1, “Method and Composition for Mimicking Caloric Restriction by Administration of Ergothioneine” (NANJING NUTRABUILDING BIO-TECH CO., LTD., priority 2021, published 2024).
# Experiments:
# [1] = tested on: malonaldehyde (MDA) and superoxide dismutase (SOD); test: Oxidative stress markers MDA and SOD by ELISA kits in high-fat diet mice; assay type: in vivo
# Description: (§1) Mice group were named after the diet they consumed. Group A mice was fed ad libitum (control), and group B mice was on high-fat diet (HFD), Group C was fed restricted amount of the HFD diet to achieve caloric restriction (HFD+CR), and Group D was fed high-fat diet and supplemented with Ergothioneine (HFD+EGT), the concentration of Ergothioneine is 3.25 mg/kg. All groups of mice were housed individually, and fed for months of interventions and had free access to water. Health status was monitored during the intervention. At the end of each intervention, body composition, insulin sensitivity, blood glucose level, different blood parameters and lifespan of the mice were studied. After treatment, blood is taken to measure high-density lipoprotein (HDL), low-density lipoprotein (LDL) and HOmeostasis Model Assessment-Insulin Resistance (HOMA-IR). The HOMA-IR index was calculated using the following formula: HOMA-IR=[fasting glucose levels (mmol/L)]×[fasting serum insulin (mU/L)]/22.5. At the end of the experiment, AKT and phospho-AKT (Ser473) protein levels in skeletal muscle after 2 IU/kg insulin stimulation for 15 min were determined by immunoblotting (n=3-6). The concentrations of inflammatory cytokines including tumor necrosis factor-α (TNF-α) and interleukin (IL)-6, and oxidative stress markers including malonaldehyde (MDA) and superoxide dismutase (SOD) were detected by ELISA kits.
# high-fat diet (HFD) mice [2] = test: HOMA-IR (fasting glucose x fasting serum insulin /22.5) in high-fat diet mice; assay type: in vivo
# Description: as §1
# [3] = tested on: tumor necrosis factor-α (TNF-α) and interleukin (IL)-6; test: Inflammatory cytokines TNF-α and IL-6 by ELISA kits in high-fat diet mice; assay type: in vivo
# Description: as §1
# high-fat diet (HFD) mice [4] = test: Blood LDL and HDL in high-fat diet mice supplemented with Ergothioneine; assay type: in vivo
# Description: as §1
# [5] = animals and humans, even at high doses; cited from earlier work
# [6] = tested on: AKT and phospho-AKT (Ser473); test: AKT and phospho-AKT (Ser473) protein levels in skeletal muscle after insulin stimulation, immunoblotting; assay type: in vivo, mice
# Description: as §1
compound,measurement,setting,value
C[N+](C)(C)[C@@H](Cc1c[nH]c(=S)[nH]1)C(=O)[O-] [Ergothioneine],MDA expression,"[1]; EGT compared with HFD group, FIG. 7",reduction of MDA expression
same,SOD expression,"[1]; EGT compared with HFD group, FIG. 8",elevation of SOD expression
same,level of MDA decreased by Ergothioneine to,"[1]; broadest of the nested bounds printed (15, 13, 12, 11, 10, 8)",≤ 15 nmol/mL
same,level of SOD increased by Ergothioneine to,"[1]; broadest of the nested bounds printed (45, 48, 50, 51, 52, 55)",≥ 45 U/mL
same,HOMA-IR,"high-fat diet (HFD) mice [2]; HFD+EGT group vs HFD group, FIG. 3",lower HOMA-IR than HFD group
same,HOMA-IR decreased by Ergothioneine to,"high-fat diet (HFD) mice [2]; broadest of the nested bounds printed (28, 26, 24, 22, 20, 15)",≤ 28
same,content of TNF-α,"[3]; HFD+EGT group compared with HFD group, FIG. 5",remarkably decreased
same,content of IL-6,"[3]; HFD+EGT group compared with HFD group, FIG. 6",remarkably decreased
same,level of IL-6 decreased by Ergothioneine to,"[3]; broadest of the nested bounds printed (38, 35, 30, 28, 26, 22)",≤ 38 pg/mL
same,level of TNF-α decreased by Ergothioneine to,"[3]; broadest of the nested bounds printed (40, 38, 35, 32, 30, 28, 26)",≤ 40 pg/mL
same,level of LDL,"high-fat diet (HFD) mice [4]; HFD+EGT (Group D), Ergothioneine 3.25 mg/kg, vs HFD group, FIG. 1",significantly decreased
same,level of HDL,"high-fat diet (HFD) mice [4]; HFD+EGT (Group D), Ergothioneine 3.25 mg/kg, vs HFD group, FIG. 2",significantly increased
same,LDL level decreased by Ergothioneine to,"high-fat diet (HFD) mice [4]; broadest of the nested bounds printed (24, 22, 20, 18, 15)",≤ 24 mg/dL
same,HDL level increased by Ergothioneine to,"high-fat diet (HFD) mice [4]; broadest of the nested bounds printed (40, 42, 44, 46, 48, 50)",≥ 40 mg/dL
same,toxicity or adverse effects associated with administration,[5],no toxicity or adverse effects
same,p-AKT/AKT increased by Ergothioneine to,"[6]; broadest of the nested bounds printed (0.25, 0.35, 0.40, 0.45, 0.53, 0.60)",≥ 0.25
same,insulin-stimulated AKT phosphorylation (p-AKT)/AKT relative protein expression,"[6]; skeletal muscle, 2 IU/kg insulin for 15 min, HFD+EGT vs HFD group, FIG. 4",higher than HFD group
